According to ChEMBL document CHEMBL1201862, “PubChem BioAssay data set” (2004):
The source made the active and inactive calls.

What was measured:
[1] = biological target: T1, Short transient receptor potential channel 4 (Mus musculus, UniProt Q9QUQ5); test: potentiation of DAMGO-evoked TRPC4 calcium signal – cell-based, HEK293 TRPC4/mu-opioid, Fluo-4 calcium, EC20 DAMGO, dose response (AID 434941); type: functional
T1 sequence (Q9QUQ5 whole entry): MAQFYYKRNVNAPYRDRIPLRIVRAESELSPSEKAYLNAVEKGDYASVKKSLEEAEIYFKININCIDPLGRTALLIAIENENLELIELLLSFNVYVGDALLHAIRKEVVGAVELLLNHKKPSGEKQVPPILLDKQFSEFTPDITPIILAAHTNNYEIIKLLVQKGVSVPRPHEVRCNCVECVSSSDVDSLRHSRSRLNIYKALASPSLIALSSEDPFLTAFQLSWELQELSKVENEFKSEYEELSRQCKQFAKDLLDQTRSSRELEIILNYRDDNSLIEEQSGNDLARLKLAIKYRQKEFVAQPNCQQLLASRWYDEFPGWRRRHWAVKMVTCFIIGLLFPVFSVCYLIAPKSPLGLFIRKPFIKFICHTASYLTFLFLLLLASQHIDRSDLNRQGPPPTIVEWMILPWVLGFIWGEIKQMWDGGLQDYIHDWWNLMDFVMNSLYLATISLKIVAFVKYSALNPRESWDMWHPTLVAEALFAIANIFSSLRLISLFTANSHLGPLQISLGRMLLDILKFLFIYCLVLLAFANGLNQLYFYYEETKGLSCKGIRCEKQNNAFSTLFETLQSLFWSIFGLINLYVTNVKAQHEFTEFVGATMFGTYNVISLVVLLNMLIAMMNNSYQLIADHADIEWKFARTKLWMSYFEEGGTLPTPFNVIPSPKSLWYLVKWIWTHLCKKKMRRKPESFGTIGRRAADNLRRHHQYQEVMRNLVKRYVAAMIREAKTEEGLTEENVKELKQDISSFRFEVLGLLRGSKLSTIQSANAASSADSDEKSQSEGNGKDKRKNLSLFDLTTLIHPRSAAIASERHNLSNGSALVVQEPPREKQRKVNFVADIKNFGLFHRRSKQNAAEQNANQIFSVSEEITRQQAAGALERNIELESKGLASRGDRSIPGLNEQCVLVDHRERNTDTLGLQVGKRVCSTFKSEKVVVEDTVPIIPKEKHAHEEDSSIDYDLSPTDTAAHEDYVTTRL

[2] = test system: Vero; test: host cell viability loss, Vero E6 – synthesized analogs, cytotoxicity control for West Nile virus antiviral project, SAR follow-up (AID 2244); type: functional; settings: Chlorocebus sabaeus
[3] = test system: Vero; test: antiviral protection of cells from WNV – synthesized analogs, SAR follow-up (AID 2238); type: functional, cell-based; settings: Chlorocebus sabaeus
[4] = biological target: T2, Bcl-2-like protein 10 (Homo sapiens, UniProt Q9HD36); test: Bcl-B/TR3 peptide binding disruption – biochemical, fluorescence polarization, FITC-TR3 peptide, selectivity assay for Bfl-1 inhibitor project, primary screen (AID 748);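 note: fluorescence polarization from a fluorescein-labelled TR3 peptide binding purified Bcl-B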
T2 sequence (Q9HD36 whole entry): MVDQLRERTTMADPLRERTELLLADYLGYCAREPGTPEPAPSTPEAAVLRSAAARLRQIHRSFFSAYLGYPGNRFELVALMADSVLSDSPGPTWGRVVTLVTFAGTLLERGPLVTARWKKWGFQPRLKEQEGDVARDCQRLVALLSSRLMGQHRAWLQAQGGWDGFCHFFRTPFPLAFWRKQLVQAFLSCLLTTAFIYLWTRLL

[5] = biological target: T3, SUMO-activating enzyme (Homo sapiens, UniProt Q9UBT2); test: blockers of UBC9-mediated SUMO conjugation – biochemical, AlphaScreen, SUMOylation inhibitor project, confirmation (AID 2018); type: functional
[6] = biological target: T3, SUMO-activating enzyme; test: blockers of SAE1/SAE2–UBC9 SUMO transfer – biochemical, HTRF, uHTS, primary screen (AID 2006); type: protein-complex assay
[7] = biological target: Tyrosine-protein phosphatase non-receptor type 7 (Homo sapiens, UniProt P35236); test: redox-active compounds inhibiting HePTP phosphatase – biochemical, fluorescence, mechanism study (AID 2068); type: functional
[8] = viability loss in THP-1 monocytes – THP-1 cells, cytotoxicity control for Vif-APOBEC3G degradation inhibitor project, dose response (AID 1117359); type: functional; settings: THP-1
[9] = viability loss in Vero cells – cytotoxicity control for Vif-APOBEC3G degradation inhibitor project, dose response (AID 1117358); type: functional; settings: Vero
[10] = biological target: T4, Caspase-3 (Homo sapiens, UniProt P42574); test: activation of caspase-3 zymogen – biochemical, absorbance, dose response (AID 489014)
T4 sequence (P42574 whole entry): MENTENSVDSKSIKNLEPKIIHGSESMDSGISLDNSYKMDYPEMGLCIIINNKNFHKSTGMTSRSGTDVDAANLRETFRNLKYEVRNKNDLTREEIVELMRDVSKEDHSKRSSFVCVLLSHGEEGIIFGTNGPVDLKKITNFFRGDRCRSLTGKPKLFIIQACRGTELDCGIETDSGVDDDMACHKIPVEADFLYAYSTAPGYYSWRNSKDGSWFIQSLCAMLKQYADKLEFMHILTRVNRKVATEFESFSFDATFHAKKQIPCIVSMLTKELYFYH

[11] = biological target: Caspase-7 (Homo sapiens, UniProt P55210); test: activation of caspase-7 zymogen – biochemical, absorbance, counter-screen for procaspase-3 activator project, dose response (AID 489013)
[12] = biological target: T5, Corticotropin-releasing factor receptor 2/Corticotropin-releasing factor-binding protein (Homo sapiens, UniProt P24387+Q13324); test: Dose Response confirmation of uHTS hits for small molecule antagonists of the CRF-binding protein and CRF-R2 receptor complex.; type: functional; settings: read-out: IC50_Mean
T5 sequence (Q13324 whole entry): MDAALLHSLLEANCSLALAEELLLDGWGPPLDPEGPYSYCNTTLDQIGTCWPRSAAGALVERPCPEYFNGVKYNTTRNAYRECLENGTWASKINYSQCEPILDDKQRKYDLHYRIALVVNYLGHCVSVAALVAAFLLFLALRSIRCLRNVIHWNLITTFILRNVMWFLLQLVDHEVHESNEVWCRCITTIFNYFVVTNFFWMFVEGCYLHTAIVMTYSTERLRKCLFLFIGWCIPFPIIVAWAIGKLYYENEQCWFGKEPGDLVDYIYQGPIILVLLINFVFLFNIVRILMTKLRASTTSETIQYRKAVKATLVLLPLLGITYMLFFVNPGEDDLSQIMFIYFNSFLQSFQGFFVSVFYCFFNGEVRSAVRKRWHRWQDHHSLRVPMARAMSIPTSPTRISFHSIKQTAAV
T5 sequence (P24387 whole entry): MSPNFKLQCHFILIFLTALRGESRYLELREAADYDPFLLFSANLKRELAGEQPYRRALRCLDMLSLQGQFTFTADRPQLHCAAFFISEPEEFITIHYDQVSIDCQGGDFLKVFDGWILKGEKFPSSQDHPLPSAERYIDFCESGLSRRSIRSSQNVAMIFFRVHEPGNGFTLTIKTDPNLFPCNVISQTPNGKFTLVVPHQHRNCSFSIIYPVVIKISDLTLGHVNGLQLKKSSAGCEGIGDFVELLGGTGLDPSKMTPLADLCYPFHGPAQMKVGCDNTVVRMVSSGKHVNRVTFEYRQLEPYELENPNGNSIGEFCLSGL

[13] = biological target: T5, Corticotropin-releasing factor receptor 2/Corticotropin-releasing factor-binding protein; test: activators of CRF receptor 2 with binding protein – uHTS hits, confirmation (AID 602473); type: functional; settings: read-out: EC50_Mean
[14] = biological target: Cytochrome P450 3A4 (Homo sapiens, UniProt P08684);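 note: CYP3A4 tested as one member of a cytochrome P450 panel screen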
[15] = biological target: Trypsin (Sus scrofa, UniProt P00761); test: trypsin protease activity blockade – biochemical, quenched peptide fluorescence, cherry-pick, selectivity assay for Rce1 protease inhibitor project, dose response (AID 488789)
[16] = biological target: CAAX prenyl protease 2 (Saccharomyces cerevisiae S288c, UniProt Q03530); type: biochemical
[17] = biological target: CAAX prenyl protease 2 (Homo sapiens, UniProt Q9Y256); test: inhibition of Ras-converting CAAX protease Rce1 – biochemical, yeast membranes, quenched-peptide fluorescence, cherry-pick, dose response (AID 588849)
[18] = biological target: Voltage-dependent T-type calcium channel subunit alpha-1H (Homo sapiens, UniProt O95180); test: human CACNA1H calcium influx blockade – cell-based, synthetic library set 1, calcium flux (AID 493022); type: functional

T3 sequence (Q9UBE0 whole entry): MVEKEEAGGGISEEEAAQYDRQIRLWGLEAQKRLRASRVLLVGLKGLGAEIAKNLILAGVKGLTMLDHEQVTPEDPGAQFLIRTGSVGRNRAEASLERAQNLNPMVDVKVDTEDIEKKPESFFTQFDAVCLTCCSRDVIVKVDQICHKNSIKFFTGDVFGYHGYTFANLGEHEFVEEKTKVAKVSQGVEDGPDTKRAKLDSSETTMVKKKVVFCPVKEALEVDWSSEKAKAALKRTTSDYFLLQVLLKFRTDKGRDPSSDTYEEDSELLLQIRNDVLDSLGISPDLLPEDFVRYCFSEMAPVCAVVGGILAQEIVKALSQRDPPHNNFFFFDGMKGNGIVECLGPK
T3 sequence (Q9UBT2 whole entry): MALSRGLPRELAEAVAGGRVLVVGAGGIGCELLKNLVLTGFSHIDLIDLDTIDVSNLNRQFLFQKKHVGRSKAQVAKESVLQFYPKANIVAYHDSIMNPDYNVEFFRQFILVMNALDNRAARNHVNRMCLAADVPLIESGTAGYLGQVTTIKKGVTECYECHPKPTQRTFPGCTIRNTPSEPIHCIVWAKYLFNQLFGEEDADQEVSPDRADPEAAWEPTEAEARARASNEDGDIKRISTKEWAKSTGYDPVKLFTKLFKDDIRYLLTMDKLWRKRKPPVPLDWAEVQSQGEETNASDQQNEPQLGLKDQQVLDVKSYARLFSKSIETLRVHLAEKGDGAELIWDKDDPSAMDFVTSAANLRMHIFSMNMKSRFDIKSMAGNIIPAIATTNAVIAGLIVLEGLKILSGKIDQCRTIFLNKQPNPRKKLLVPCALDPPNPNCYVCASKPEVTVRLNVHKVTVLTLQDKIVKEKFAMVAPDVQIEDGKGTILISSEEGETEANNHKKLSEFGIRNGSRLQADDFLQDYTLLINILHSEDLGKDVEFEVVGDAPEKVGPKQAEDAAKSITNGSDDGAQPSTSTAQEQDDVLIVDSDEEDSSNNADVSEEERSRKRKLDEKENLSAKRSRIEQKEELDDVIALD
Caspase-7, sequence (P55210 24-198 limits assumed): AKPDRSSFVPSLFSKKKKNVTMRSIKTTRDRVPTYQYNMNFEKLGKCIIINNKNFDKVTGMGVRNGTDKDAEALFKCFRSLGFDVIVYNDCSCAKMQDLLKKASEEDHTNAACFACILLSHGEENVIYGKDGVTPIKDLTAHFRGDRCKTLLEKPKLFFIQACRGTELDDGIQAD
Caspase-7, sequence (P55210 207-303 limits assumed): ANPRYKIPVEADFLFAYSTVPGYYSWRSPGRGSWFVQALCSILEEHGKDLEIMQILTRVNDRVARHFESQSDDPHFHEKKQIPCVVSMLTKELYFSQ
CAAX prenyl protease 2 (Saccharomyces cerevisiae S288c, UniProt Q03530), sequence (Q03530 whole entry): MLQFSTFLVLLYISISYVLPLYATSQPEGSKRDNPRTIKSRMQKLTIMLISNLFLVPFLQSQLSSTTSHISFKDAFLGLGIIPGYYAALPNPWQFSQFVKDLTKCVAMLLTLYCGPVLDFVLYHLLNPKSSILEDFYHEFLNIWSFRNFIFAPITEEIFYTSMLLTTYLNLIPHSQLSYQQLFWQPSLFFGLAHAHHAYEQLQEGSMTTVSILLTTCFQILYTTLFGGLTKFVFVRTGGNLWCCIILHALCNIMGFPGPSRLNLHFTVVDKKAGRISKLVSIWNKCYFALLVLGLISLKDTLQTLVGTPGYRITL
Trypsin, sequence (P00761 whole entry): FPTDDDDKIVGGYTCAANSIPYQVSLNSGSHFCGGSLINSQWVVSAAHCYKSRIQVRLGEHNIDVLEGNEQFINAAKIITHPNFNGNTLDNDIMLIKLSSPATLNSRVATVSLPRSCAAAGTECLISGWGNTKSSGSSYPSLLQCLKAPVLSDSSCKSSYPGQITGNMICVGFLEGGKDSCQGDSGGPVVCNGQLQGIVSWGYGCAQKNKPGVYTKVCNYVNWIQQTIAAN
Tyrosine-protein phosphatase non-receptor type 7, sequence (P35236 whole entry): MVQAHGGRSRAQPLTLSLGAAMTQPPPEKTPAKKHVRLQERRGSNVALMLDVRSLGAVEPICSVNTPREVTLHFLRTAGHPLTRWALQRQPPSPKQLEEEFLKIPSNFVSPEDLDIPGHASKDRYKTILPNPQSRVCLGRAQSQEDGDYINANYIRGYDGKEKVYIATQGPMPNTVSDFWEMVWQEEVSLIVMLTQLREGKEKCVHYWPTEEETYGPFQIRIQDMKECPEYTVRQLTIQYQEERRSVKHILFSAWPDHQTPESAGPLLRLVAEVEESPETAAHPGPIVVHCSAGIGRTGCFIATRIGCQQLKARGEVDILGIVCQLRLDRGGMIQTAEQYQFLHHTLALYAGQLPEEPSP
CAAX prenyl protease 2 (Homo sapiens, UniProt Q9Y256), sequence (Q9Y256 whole entry): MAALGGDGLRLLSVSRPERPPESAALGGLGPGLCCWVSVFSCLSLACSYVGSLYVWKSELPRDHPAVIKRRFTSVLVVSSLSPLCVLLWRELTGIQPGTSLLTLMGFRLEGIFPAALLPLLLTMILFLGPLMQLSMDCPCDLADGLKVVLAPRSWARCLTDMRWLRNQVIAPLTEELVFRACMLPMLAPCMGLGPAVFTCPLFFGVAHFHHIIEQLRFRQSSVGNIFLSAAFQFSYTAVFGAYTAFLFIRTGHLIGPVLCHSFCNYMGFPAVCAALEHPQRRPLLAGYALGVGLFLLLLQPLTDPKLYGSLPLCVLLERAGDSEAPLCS
Cytochrome P450 3A4, sequence (P08684 whole entry): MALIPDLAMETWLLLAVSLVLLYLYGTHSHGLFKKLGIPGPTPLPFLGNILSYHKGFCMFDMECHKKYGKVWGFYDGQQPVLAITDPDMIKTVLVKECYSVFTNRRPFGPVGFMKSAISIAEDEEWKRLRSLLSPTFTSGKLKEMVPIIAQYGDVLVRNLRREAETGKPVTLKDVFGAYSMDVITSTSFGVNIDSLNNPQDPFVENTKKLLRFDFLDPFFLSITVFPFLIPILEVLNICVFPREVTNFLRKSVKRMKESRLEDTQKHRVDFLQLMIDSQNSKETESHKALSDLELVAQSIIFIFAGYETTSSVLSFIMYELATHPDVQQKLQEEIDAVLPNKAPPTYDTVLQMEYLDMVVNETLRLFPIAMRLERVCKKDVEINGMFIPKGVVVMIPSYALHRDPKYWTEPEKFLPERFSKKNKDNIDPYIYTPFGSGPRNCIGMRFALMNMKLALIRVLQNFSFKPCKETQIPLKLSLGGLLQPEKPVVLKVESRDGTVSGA

Which EC50 [1] does the source give for `Cc1cccc(Cc2c(C)nc3c(C(=O)NCc4ccco4)cnn3c2C)c1` here?
Its EC50 is 3.76 µM (active).

With `COc1ccc(-c2csc(N(CCCN(C)C)C(=O)c3ccccc3C)n2)cc1` as the molecule, how does the CC50 [2] read?
Its CC50 is 63.2 µM (active).

And the IC50 [3]?
Its IC50 is 76.6 µM (active).

Which IC50 [4] does the source give for `O=C(Nc1ccccc1)c1ccc2nc(-c3ccco3)c(-c3ccco3)nc2c1` here?
Its IC50 is > 100 µM (inactive).

And the IC50 [5]?
Its IC50 is 1.54 µM (active).

And the IC50 [6]?
Its IC50 is 20.7 µM (active).

And the IC50 [7]?
Its IC50 is 2.51 µM (active).

And the CC50 [8]?
Its CC50 is > 40 µM (active).

What about the CC50 [9] of the same molecule?
Its CC50 is > 40 µM (active).

For `COC(=O)C1=C(NC(=O)c2cccc(OC)c2)CCS1`, which EC50 [10] is on record?
Its EC50 is > 85.3 µM (inactive).

What about the EC50 [11] of the same molecule?
The EC50 was > 85.3 µM (inactive).

What about the IC50 [12] of the same molecule?
Its IC50 is > 47.1 µM (inactive).

And the EC50 [13]?
The EC50 was > 53 µM (inactive).

And the AC50 [14]?
Its AC50 is 25.1 µM (inconclusive).

With `COc1ccc(-c2cc3ccc(OCc4nn[nH]n4)cc3oc2=O)cc1OC` as the molecule, how does the AC50 [15] read?
Its AC50 is 2.34 µM (active).

What about the AC50 [16] of the same molecule?
The AC50 was 20.3 µM (active).

What about the AC50 [17] of the same molecule?
Its AC50 is 1.71 µM (active).

Which EC50 [18] does the source give for `O=C(COc1ccc(F)cc1)Nc1nnc(-c2ccc(F)c(F)c2)o1` here?
The EC50 was 3.7 µM (active).
